Test results: US20100075965A1, “PI3 KINASE INHIBITORS AND METHODS OF THEIR USE” (Novartis AG, priority 2006, published 2010)
Where two headings read alike, the source gives them in different places.

Columns and labels:
[1] = target: PI3 K Alpha (Homo sapiens, UniProt P42336); assay: PI3 kinase phosphorylation assays (homogenous solution phase, one step solid phase, ATP depletion/KinaseGlo); assay type: biochemical
[2] = test system: pSer473-Akt in A2780 cells; assay: pSer473 Akt assay to monitor PI3K pathway in A2780 cells (MSD); assay type: cell-based; conditions: Homo sapiens
Procedure: In this method, an assay for measuring the PI3K-mediated pSer^473-Akt status after treatment with representative inhibitor compounds of the preferred embodiments is described.
A2780 cells were cultured in DMEM supplemented with 10% FBS, L-glutamine, sodium pyruvate, and antibiotics. Cells were plated in the same medium at a density of 15,000 cells per well into 96 well tissue culture plates, with outside wells vacant, and allowed to adhere overnight.
Test compounds supplied in DMSO were diluted further into DMSO at 500 times the desired final concentrations before dilution into culture media to 2 times the final concentrations. Equal volumes of 2× compounds in media were added to the cells in 96 well plates and incubated at 37° C. for one hour. The media and compounds were then removed, the plates chilled and cells lysed in a lysis buffer (150 mM NaCl, 20 mM Tris pH 7.5, 1 mM EDTA, 1 mM EGTA, 1% Triton X-100) supplemented with phosphatase and protease inhibitors. After thorough mixing, lysates were transferred to both pSer473Akt and total Akt assay plates from Meso Scale Discovery (MSD), and incubated overnight with shaking at 4° C. The plates were washed with 1×MSD wash buffer and the captured analytes detected with secondary antibodies. After incubation with the secondary antibody at room temperature for 1-2 hours, the plates were washed again and 1.5× concentration of Read Buffer T (MSD) was added to the wells.
The assays were read on a SECTOR Imager 6000 instrument (Meso Scale Discovery). Ratios of the signal from pSer473Akt and total Akt assays were used to correct for any variability and the percent inhibition of pSer473Akt from the total signal seen in cells treated with compound versus DMSO alone was calculated and used to determine EC50 values for each compound as shown in Tables 1 and 2 in the column labeled “A2780 pAKT473 EC50”.

[3] = test system: A2780 cells; assay: Viability assay in A2780 (Cell Titer Glo); assay type: cell-based, human; conditions: Homo sapiens
Summary of the method: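 EC50 values come from Cell Titer Glo luminescence after 72 hrs of compound exposure at 37° C, run in duplicate. A2780 cells were plated at 1,000 per well in DMEM with 10% FBS and dosed with 3-fold serial dilutions.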

[4] = A2780 cells, read-out: A2780 pAKT 473 EC50
[5] = A2780 cells, read-out: A2780 Cell prolif. EC50
[6] = ATP depletion assay, read-out: PI3 K Alpha IC50
[7] = 1 h, A2780 cells, one hour incubation, read-out: A2780 pAKT473 EC50
[8] = A2780 cells, 72 hrs, read-out: A2780 Cell prolif. EC50

PI3 K Alpha, sequence (P42336 whole entry): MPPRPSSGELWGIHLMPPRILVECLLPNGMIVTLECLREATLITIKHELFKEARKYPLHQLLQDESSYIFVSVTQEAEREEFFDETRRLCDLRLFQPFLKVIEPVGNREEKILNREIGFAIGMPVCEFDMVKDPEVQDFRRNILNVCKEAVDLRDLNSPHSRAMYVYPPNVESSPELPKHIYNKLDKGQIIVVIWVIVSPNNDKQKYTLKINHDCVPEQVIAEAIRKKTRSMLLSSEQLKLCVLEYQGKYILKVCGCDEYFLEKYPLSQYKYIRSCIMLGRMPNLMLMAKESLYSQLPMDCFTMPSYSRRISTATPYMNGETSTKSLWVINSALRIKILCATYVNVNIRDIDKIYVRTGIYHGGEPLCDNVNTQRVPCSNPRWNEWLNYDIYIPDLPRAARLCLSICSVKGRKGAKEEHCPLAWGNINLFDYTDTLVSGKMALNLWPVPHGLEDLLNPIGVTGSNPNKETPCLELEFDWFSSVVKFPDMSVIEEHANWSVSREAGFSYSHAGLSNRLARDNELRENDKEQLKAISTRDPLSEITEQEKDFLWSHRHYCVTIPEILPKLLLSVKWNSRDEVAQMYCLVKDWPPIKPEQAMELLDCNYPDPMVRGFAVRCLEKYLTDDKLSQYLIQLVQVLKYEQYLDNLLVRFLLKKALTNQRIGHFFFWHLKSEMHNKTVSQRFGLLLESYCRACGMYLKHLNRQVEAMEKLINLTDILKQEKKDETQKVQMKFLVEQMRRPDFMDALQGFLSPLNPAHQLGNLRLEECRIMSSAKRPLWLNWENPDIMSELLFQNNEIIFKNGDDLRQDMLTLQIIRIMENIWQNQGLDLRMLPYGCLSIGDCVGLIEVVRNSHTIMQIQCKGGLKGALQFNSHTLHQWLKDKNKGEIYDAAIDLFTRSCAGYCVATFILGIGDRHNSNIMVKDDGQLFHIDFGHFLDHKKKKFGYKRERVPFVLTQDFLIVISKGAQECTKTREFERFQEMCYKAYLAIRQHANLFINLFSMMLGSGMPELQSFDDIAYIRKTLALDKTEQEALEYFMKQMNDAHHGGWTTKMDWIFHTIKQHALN
PI3 K Alpha, sequence (P27986 whole entry partner): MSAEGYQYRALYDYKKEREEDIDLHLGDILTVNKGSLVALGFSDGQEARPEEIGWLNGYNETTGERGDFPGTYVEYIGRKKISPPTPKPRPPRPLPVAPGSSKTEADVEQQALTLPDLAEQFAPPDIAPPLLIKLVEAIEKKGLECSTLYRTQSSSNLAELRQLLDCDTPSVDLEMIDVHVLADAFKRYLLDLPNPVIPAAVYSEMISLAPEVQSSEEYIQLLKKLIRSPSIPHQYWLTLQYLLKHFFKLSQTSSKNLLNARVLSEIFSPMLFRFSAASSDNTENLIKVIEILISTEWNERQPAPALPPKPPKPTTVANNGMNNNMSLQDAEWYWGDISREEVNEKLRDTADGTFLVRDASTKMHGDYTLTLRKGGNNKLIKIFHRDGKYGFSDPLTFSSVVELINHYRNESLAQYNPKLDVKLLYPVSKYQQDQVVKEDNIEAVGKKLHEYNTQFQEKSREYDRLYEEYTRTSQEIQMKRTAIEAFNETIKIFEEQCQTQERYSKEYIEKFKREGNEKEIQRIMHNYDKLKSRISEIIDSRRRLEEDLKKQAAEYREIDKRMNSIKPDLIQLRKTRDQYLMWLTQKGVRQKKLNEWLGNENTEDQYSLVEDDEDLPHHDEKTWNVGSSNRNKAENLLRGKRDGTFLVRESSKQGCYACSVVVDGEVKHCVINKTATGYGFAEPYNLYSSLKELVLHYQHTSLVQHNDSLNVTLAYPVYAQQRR

SMILES | IC50 ([1]; read-out: PI3K Alpha IC50) [µM] | EC50 [2, 4] [µM] | EC50 [3, 5] [µM] | IC50 [1, 6] [µM] | EC50 [2, 7] [µM] | EC50 [3, 8] [µM] | EC50 ([2]; A2780, read-out: A2780 pAKT 473 EC50) [µM] | EC50 ([3]; A2780, read-out: A2780 Cell prolif. EC50) [µM]
Nc1ncc(-c2ccc3nc(NC(=O)C(F)(F)F)cn3c2)cn1 [Example 2, N-[6-(2-Amino-pyrimidin-5-yl)-imidazo[1,2-a]pyridin-2-yl]-2,2,2-trifluoro-acetamide] | < 1 | < 25 | < 25 | – | – | – | – | –
CC(=O)Nc1cn2cc(-c3ccc(N)nc3)ccc2n1 [Example 3, N-[6-(6-Amino-pyridin-3-yl)-imidazo[1,2-a]pyridin-2-yl]-acetamide] | < 1 | < 1 | < 10 | – | – | – | – | –
CC(=O)Nc1cn2cc(-c3cnc(N)nc3)ccc2n1 [Example 4, N-[6-(2-Amino-pyrimidin-5-yl)-imidazo[1,2-a]pyridin-2-yl]-acetamide] | < 1 | < 10 | < 25 | – | – | – | – | –
CC(=O)Nc1nc2ccc(-c3cnc(N)c(C(F)(F)F)c3)cn2c1Cl [Example 7, N-[6-(6-Amino-5-trifluoromethyl-pyridin-3-yl)-3-chloro-imidazo[1,2-a]pyridin-2-yl]-acetamide] | < 1 | < 10 | < 10 | – | – | – | – | –
COc1cc(-c2ccc3nc(NC(C)=O)c(Br)n3c2)cnc1N [Example 8, N-[6-(6-Amino-5-methoxy-pyridin-3-yl)-3-bromo-imidazo[1,2-a]pyridin-2-yl]-acetamide] | < 1 | < 1 | < 10 | – | – | – | – | –
CC(=O)Nc1nc2ccc(-c3cnc(N)c(C(F)(F)F)c3)cn2c1Br [Example 11, N-[6-(6-Amino-5-trifluoromethyl-pyridin-3-yl)-3-bromo-imidazo[1,2-a]pyridin-2-yl]-acetamide] | < 1 | – | – | – | – | – | < 10 | < 25
CC(=O)Nc1nc2ccc(-c3cnc(N)c(C(F)(F)F)c3)cn2c1-c1ccccc1 [Example 12, N-[6-(6-Amino-5-trifluoromethyl-pyridin-3-yl)-3-phenyl-imidazo[1,2-a]pyridin-2-yl]-acetamide] | < 1 | < 10 | < 25 | – | – | – | – | –
Nc1ncc(-c2ccc3nc(NC(=O)[C@@H]4CCCCN4)cn3c2)cc1C(F)(F)F [Example 283, (S)-N-(6-(6-amino-5-(trifluoromethyl)pyridin-3-yl)imidazo[1,2-a]pyridin-2-yl)piperidine-2-carboxamide] | – | < 1 | < 10 | – | – | – | – | –

Further lines, with some results ahead:

IC50 ([1]; read-out: PI3K Alpha IC50) [µM] | EC50 [2, 4] [µM] | EC50 [3, 5] [µM] | IC50 [1, 6] [µM] | EC50 [2, 7] [µM] | EC50 [3, 8] [µM] | SMILES | EC50 ([2]; A2780, read-out: A2780 pAKT 473 EC50) [µM] | EC50 ([3]; A2780, read-out: A2780 Cell prolif. EC50) [µM]
– | – | – | < 1 | < 1 | < 10 | COC(=O)Nc1nc2ccc(-c3ccc(N)nc3)cc2s1 [Example 2-3, [6-(6-Amino-pyridin-3-yl)-benzothiazol-2-yl]-carbamic acid methyl ester] | – | –
– | – | – | < 1 | < 1 | < 10 | CC(=O)Nc1nc2ccc(-c3cnc(N)c(F)c3)cc2s1 [Example 2-6, N-[6-(6-Amino-5-fluoro-pyridin-3-yl)-benzothiazol-2-yl]-acetamide] | – | –
– | – | – | < 1 | < 1 | < 25 | CCCNc1ccc(-c2ccc3nc(NC(C)=O)sc3c2)cn1 [Example 2-7, N-[6-(6-Propylamino-pyridin-3-yl)-benzothiazol-2-yl]-acetamide] | – | –
– | – | – | < 1 | < 1 | < 25 | Nc1ccc(-c2ccc3nc(NC(=O)CCCN4CCOCC4)sc3c2)cn1 [Example 2-10, N-[6-(6-Amino-pyridin-3-yl)-benzothiazol-2-yl]-4-morpholin-4-yl-butyramide] | – | –
– | – | – | < 1 | < 1 | < 10 | Nc1ncc(-c2ccc3nc(NC(=O)CCCN4CCOCC4)sc3c2)cn1 [Example 2-11, N-[6-(2-Amino-pyrimidin-5-yl)-benzothiazol-2-yl]-4-morpholin-4-yl-butyramide] | – | –
– | – | – | < 1 | < 1 | < 25 | Nc1ccc(-c2ccc3nc(NC(=O)CN4CCOCC4)sc3c2)cn1 [Example 2-16, N-[6-(6-Amino-pyridin-3-yl)-benzothiazol-2-yl]-2-morpholin-4-yl-acetamide] | – | –
– | – | – | < 1 | < 10 | < 25 | CC(=O)Nc1nc2ccc(-c3cnc(N)cc3C)cc2s1 [Example 2-18, N-[6-(6-Amino-4-methyl-pyridin-3-yl)-benzothiazol-2-yl]-acetamide] | – | –
– | – | – | – | < 1 | < 10 | Nc1ncc(-c2ccc3nc(NC(=O)CCCN4CCCCC4)sc3c2)cc1C(F)(F)F [Example 2-21, N-[6-(6-Amino-5-trifluoromethyl-pyridin-3-yl)-benzothiazol-2-yl]-4-piperidin-1-yl-butyramide] | – | –
– | – | – | < 1 | < 1 | < 10 | CNC(=O)Nc1nc2ccc(-c3ccc(N)nc3)cc2s1 [Example 2-23, 1-[6-(6-Amino-pyridin-3-yl)-benzothiazol-2-yl]-3-methyl-urea] | – | –
– | – | – | < 1 | < 10 | < 25 | Nc1ccc(-c2ccc3nc(NC(=O)OCCN4CCOCC4)sc3c2)cn1 [Example 2-24, [6-(6-Amino-pyridin-3-yl)-benzothiazol-2-yl]-carbamic acid 2-morpholin-4-yl-ethyl ester] | – | –
– | – | – | < 1 | < 1 | < 10 | CC(=O)Nc1nc2ccc(-c3cnc(N)c(CN(C)C)c3)cc2s1 [Example 2-25, N-[6-(6-Amino-5-dimethylamino-methyl-pyridin-3-yl)-benzothiazol-2-yl]-acetamide] | – | –
– | – | – | < 1 | < 1 | < 10 | CC(=O)Nc1nc2ccc(-c3cnc(N)c(C(=O)N4CCOCC4)c3)cc2s1 [Example 2-26, N-{6-[6-Amino-5-(morpholine-4-carbonyl)-pyridin-3-yl]-benzothiazol-2-yl}-acetamide] | – | –
– | – | – | < 1 | < 1 | < 10 | CC(=O)Nc1nc2ccc(-c3cnc(N)c(C(F)(F)F)c3)c(C)c2s1 [Example 2-27, N-[6-(6-Amino-5-trifluoromethyl-pyridin-3-yl)-7-methyl-benzothiazol-2-yl]-acetamide] | – | –
– | – | – | < 1 | < 1 | < 10 | CC(=O)Nc1nc2ccc(-c3cnc(N)c(C(F)(F)F)c3)c(F)c2s1 [Example 2-30, N-[6-(6-Amino-5-trifluoromethyl-pyridin-3-yl)-7-fluoro-benzothiazol-2-yl]-acetamide] | – | –
– | – | – | < 1 | < 1 | < 25 | CC(=O)Nc1nc2c(F)cc(-c3cnc(N)c(C(F)(F)F)c3)cc2s1 [Example 2-31, N-[6-(6-Amino-5-trifluoromethyl-pyridin-3-yl)-4-fluoro-benzothiazol-2-yl]-acetamide] | – | –
– | – | – | < 1 | < 1 | < 10 | COCCOc1nc(-c2ccc3nc(NC(C)=O)sc3c2)cnc1N [Example 2-32, N-(6-(5-amino-6-(2-methoxyethoxy)pyrazin-2-yl)benzo[d]thiazol-2-yl)acetamide] | – | –
– | – | – | < 1 | < 1 | < 10 | NC(=O)[C@@H]1CCCN1C(=O)Nc1nc2ccc(-c3cnc(N)c(C(F)(F)F)c3)cc2s1 [Example 2-33, (S)-N1-(6-(6-amino-5-(trifluoromethyl)pyridin-3-yl)benzo[d]thiazol-2-yl)pyrrolidine-1,2-dicarboxamide] | – | –
– | – | – | < 1 | < 1 | < 1 | CC(=O)Nc1nc2ccc(-c3cnc(N)c(OCC(F)(F)F)n3)cc2s1 [Example 2-37, N-(6-(5-amino-6-(2,2,2-trifluoroethoxy)pyrazin-2-yl)benzo[d]thiazol-2-yl)acetamide] | – | –
